# Source: ChEMBL document CHEMBL3232987, “Investigation of Ugi-4CC derived 1H-tetrazol-5-yl-(aryl) methyl piperazinyl-6-fluoro-4-oxo-1,4-dihydroquinoline-3-carboxylic acid: synthesis, biology and 3D-QSAR analysis” (Eur J Med Chem, 2014)
# Experiments:
# Staphylococcus aureus [1] = assay: Antibacterial activity against Staphylococcus aureus ATCC 25923 by NCCLS two-fold dilution method; type: functional
# Staphylococcus aureus [2] = assay: Antibacterial activity against methicillin-resistant Staphylococcus aureus ATCC 700699 by NCCLS two-fold dilution method; type: functional
# Staphylococcus aureus [3] = assay: Antibacterial activity against Staphylococcus aureus ATCC 29213 by NCCLS two-fold dilution method; type: functional
# Staphylococcus aureus [4] = assay: Antibacterial activity against gentamicin-resistant Staphylococcus aureus ATCC 33592 by NCCLS two-fold dilution method; type: functional
# Staphylococcus aureus [5] = assay: Antibacterial activity against Staphylococcus aureus ATCC 25923 after 24 hrs by spectrophotometric analysis; type: functional, organism-based; conditions: for IC50: read-out: IC50
# Staphylococcus aureus [6] = assay: Antibacterial activity against methicillin-resistant Staphylococcus aureus ATCC 700699 after 24 hrs by spectrophotometric analysis; type: functional, organism-based; conditions: for IC50: read-out: IC50
# Staphylococcus aureus [7] = assay: Antibacterial activity against Staphylococcus aureus ATCC 29213 after 24 hrs by spectrophotometric analysis; type: functional, organism-based; conditions: for IC50: read-out: IC50
# Staphylococcus aureus [8] = assay: Antibacterial activity against gentamicin-resistant Staphylococcus aureus ATCC 33592 after 24 hrs by spectrophotometric analysis; type: functional, organism-based; conditions: for IC50: read-out: IC50
# L929 [9] = assay: Cytotoxicity against mouse L929 cells assessed as cell viability up to MIC 0.39 ug/ml after 24 hrs by MTT assay; type: cell-based; conditions: l929, 24 h
# Escherichia coli [10] = assay: Antibacterial activity against Escherichia coli by NCCLS two-fold dilution method; type: functional
# Klebsiella pneumoniae [11] = assay: Antibacterial activity against Klebsiella pneumoniae by NCCLS two-fold dilution method; type: functional
# Escherichia coli [12] = assay: Antibacterial activity against Escherichia coli after 24 hrs by spectrophotometric analysis; type: functional, organism-based; conditions: for IC50: read-out: IC50
# Klebsiella pneumoniae [13] = assay: Antibacterial activity against Klebsiella pneumoniae after 24 hrs by spectrophotometric analysis; type: functional, organism-based; conditions: for IC50: read-out: IC50
# L929 [14] = assay: Cytotoxicity against mouse L929 cells assessed as cell morphological changes at 12.5 to 50 ug/ml after 24 hrs by giemsa staining based phase contrast microscopy; conditions: l929, 24 h
# L929 [15] = assay: Cytotoxicity against mouse L929 cells assessed as cell viability up to MIC 0.78 ug/ml after 24 hrs by MTT assay; type: cell-based; conditions: l929, 24 h
# [16] = Staphylococcus aureus, ATCC 25923
# [17] = Staphylococcus aureus, ATCC 25923, 24 h
# [18] = Staphylococcus aureus, ATCC 700699, 24 h
# [19] = Staphylococcus aureus, ATCC 29213, 24 h
# [20] = Staphylococcus aureus, ATCC 33592, 24 h
Molecule,-logMIC (Staphylococcus aureus [1]),MIC (Staphylococcus aureus [1]; [16]),MIC (Staphylococcus aureus [2]),MIC (Staphylococcus aureus [3]),MIC (Staphylococcus aureus [4]),MIC (Staphylococcus aureus [5]; [17]),IC50 (Staphylococcus aureus [5]; [17]),MIC (Staphylococcus aureus [6]; [18]),IC50 (Staphylococcus aureus [6]; [18]),MIC (Staphylococcus aureus [7]; [19]),IC50 (Staphylococcus aureus [7]; [19]),MIC (Staphylococcus aureus [8]; [20]),IC50 (Staphylococcus aureus [8]; [20]),Activity (L929 [9]),MIC (Escherichia coli [10]),MIC (Klebsiella pneumoniae [11]),"MIC (Escherichia coli [12]; Escherichia coli, 24 h)","IC50 (Escherichia coli [12]; Escherichia coli, 24 h)","MIC (Klebsiella pneumoniae [13]; Klebsiella pneumoniae, 24 h)","IC50 (Klebsiella pneumoniae [13]; Klebsiella pneumoniae, 24 h)",other results
CCn1cc(C(=O)O)c(=O)c2cc(F)c(N3CCN(C(c4ccccc4)c4nnnn4C(C)(C)C)CC3)cc21 (configuration not stated),6.136,0.39 µg/mL,25 µg/mL,0.78 µg/mL,0.39 µg/mL,0.38 µg/mL,0.37 µg/mL,8.3 µg/mL,3.8 µg/mL,0.5 µg/mL,0.2 µg/mL,0.38 µg/mL,0.34 µg/mL,Non-toxic,,,,,,,
CCn1cc(C(=O)O)c(=O)c2cc(F)c(N3CCN(C(c4ccc(F)cc4)c4nnnn4C(C)(C)C)CC3)cc21 (configuration not stated),5.548,0.78 µg/mL,12.5 µg/mL,0.78 µg/mL,0.78 µg/mL,0.9 µg/mL,0.3 µg/mL,12.5 µg/mL,10 µg/mL,0.7 µg/mL,0.2 µg/mL,0.5 µg/mL,0.2 µg/mL,Non-toxic,,,,,,,
CC(C)(C)n1nnnc1C(c1ccc(F)cc1)N1CCN(c2cc3c(cc2F)c(=O)c(C(=O)O)cn3Cc2ccc(C(F)(F)F)cc2)CC1 (configuration not stated),5.037,6.25 µg/mL,25 µg/mL,3.12 µg/mL,6.25 µg/mL,3.1 µg/mL,1 µg/mL,19.8 µg/mL,8.09 µg/mL,1.6 µg/mL,1.4 µg/mL,2.5 µg/mL,0.5 µg/mL,Non-toxic,,,,,,,
CCn1cc(C(=O)O)c(=O)c2cc(F)c(N3CCN(C(c4ccco4)c4nnnn4C4CCCCC4)CC3)cc21 (configuration not stated),5.847,0.78 µg/mL,25 µg/mL,1.56 µg/mL,0.78 µg/mL,0.45 µg/mL,0.22 µg/mL,8.2 µg/mL,3.7 µg/mL,1.1 µg/mL,0.6 µg/mL,0.88 µg/mL,0.4 µg/mL,Non-toxic,12.5 µg/mL,6.25 µg/mL,11.6 µg/mL,4.9 µg/mL,5.2 µg/mL,2.4 µg/mL,Activity (L929 [14]): Non-toxic
CCn1cc(C(=O)O)c(=O)c2cc(F)c(N3CCN(C(c4ccncc4)c4nnnn4C4CCCCC4)CC3)cc21 (configuration not stated),5.555,1.56 µg/mL,50 µg/mL,3.12 µg/mL,3.12 µg/mL,1.09 µg/mL,0.37 µg/mL,> 50 µg/mL,50 µg/mL,1 µg/mL,0.6 µg/mL,0.6 µg/mL,0.1 µg/mL,Non-toxic,6.25 µg/mL,6.25 µg/mL,4.2 µg/mL,2.1 µg/mL,6.3 µg/mL,3.5 µg/mL,
CCn1cc(C(=O)O)c(=O)c2cc(F)c(N3CCN(C(c4ccco4)c4nnnn4C(C)(C)C)CC3)cc21 (configuration not stated),,0.78 µg/mL,50 µg/mL,0.78 µg/mL,0.78 µg/mL,0.4 µg/mL,0.3 µg/mL,46.9 µg/mL,24.6 µg/mL,0.6 µg/mL,0.2 µg/mL,0.5 µg/mL,0.2 µg/mL,Non-toxic,6.25 µg/mL,12.5 µg/mL,4.2 µg/mL,2.9 µg/mL,10.1 µg/mL,5.3 µg/mL,Activity (L929 [15]): Non-toxic; Activity (L929 [14]): Non-toxic
O=C(O)c1cn(C2CC2)c2cc(N3CCNCC3)c(F)cc2c1=O [CIPROFLOXACIN],,0.78 µg/mL,,,0.19 µg/mL,0.9 µg/mL,0.3 µg/mL,20.2 µg/mL,16.7 µg/mL,20.2 µg/mL,16.7 µg/mL,0.4 µg/mL,0.2 µg/mL,,,0.012 µg/mL,,,0.049 µg/mL,0.02 µg/mL,
CCn1cc(C(=O)O)c(=O)c2cc(F)c(N3CCN(C(c4ccc(OC)c(OC)c4OC)c4nnnn4C4CCCCC4)CC3)cc21 (configuration not stated),5.318,1.56 µg/mL,25 µg/mL,1.56 µg/mL,1.56 µg/mL,1.35 µg/mL,0.37 µg/mL,28.9 µg/mL,14.6 µg/mL,0.8 µg/mL,0.7 µg/mL,0.8 µg/mL,0.7 µg/mL,Non-toxic,,,,,,,Activity (L929 [14]): Non-toxic
O=C(O)c1cn(Cc2ccc(C(F)(F)F)cc2)c2cc(N3CCN(C(c4ccco4)c4nnnn4C4CCCCC4)CC3)c(F)cc2c1=O (configuration not stated),5.939,0.78 µg/mL,50 µg/mL,1.56 µg/mL,0.78 µg/mL,0.52 µg/mL,0.2 µg/mL,50 µg/mL,> 50 µg/mL,0.82 µg/mL,0.75 µg/mL,0.78 µg/mL,0.4 µg/mL,Non-toxic,6.25 µg/mL,6.25 µg/mL,4.2 µg/mL,2.9 µg/mL,3.4 µg/mL,1.7 µg/mL,
CCn1cc(C(=O)O)c(=O)c2cc(F)c(N3CCN(C(c4ccncc4)c4nnnn4C(C)(C)C)CC3)cc21 (configuration not stated),5.534,1.56 µg/mL,50 µg/mL,1.56 µg/mL,1.56 µg/mL,0.9 µg/mL,0.5 µg/mL,50 µg/mL,50 µg/mL,0.9 µg/mL,0.6 µg/mL,0.7 µg/mL,0.35 µg/mL,Non-toxic,25 µg/mL,25 µg/mL,27.7 µg/mL,20.5 µg/mL,26 µg/mL,24 µg/mL,
CCn1cc(C(=O)O)c(=O)c2cc(F)c(N3CCN(C(c4ccc(OC)c(OC)c4OC)c4nnnn4C(C)(C)C)CC3)cc21 (configuration not stated),5.602,1.56 µg/mL,50 µg/mL,3.12 µg/mL,3.12 µg/mL,0.81 µg/mL,0.4 µg/mL,50 µg/mL,50 µg/mL,1.4 µg/mL,0.8 µg/mL,0.87 µg/mL,0.75 µg/mL,Non-toxic,50 µg/mL,> 50 µg/mL,46 µg/mL,29 µg/mL,> 50 µg/mL,> 50 µg/mL,
CCn1cc(C(=O)O)c(=O)c2cc(F)c(N3CCN(C(c4ccccc4)c4nnnn4C4CCCCC4)CC3)cc21 (configuration not stated),5.554,1.56 µg/mL,12.5 µg/mL,3.12 µg/mL,1.56 µg/mL,0.8 µg/mL,0.4 µg/mL,11.6 µg/mL,4.9 µg/mL,1.5 µg/mL,0.8 µg/mL,0.78 µg/mL,0.75 µg/mL,Non-toxic,,,,,,,
CCn1cc(C(=O)O)c(=O)c2cc(F)c(N3CCN(C(c4cccc5ccccc45)c4nnnn4C(C)(C)C)CC3)cc21 (configuration not stated),5.573,1.56 µg/mL,6.25 µg/mL,3.12 µg/mL,0.78 µg/mL,0.8 µg/mL,0.7 µg/mL,4.9 µg/mL,3.5 µg/mL,2.4 µg/mL,0.2 µg/mL,0.7 µg/mL,0.2 µg/mL,Non-toxic,,,,,,,
GENTAMICIN,,,> 50 µg/mL,> 50 µg/mL,> 50 µg/mL,,,,,,,,,,1.56 µg/mL,1.56 µg/mL,,,,,MIC (Staphylococcus aureus [1]): 1.56 µg/mL; MIC (Staphylococcus aureus [5]): 2.1 µg/mL; MIC (Staphylococcus aureus [6]): > 50 µg/mL; MIC (Staphylococcus aureus [7]): > 50 µg/mL; MIC (Staphylococcus aureus [8]): > 50 µg/mL; MIC (Escherichia coli [12]): 2.1 µg/mL; MIC (Klebsiella pneumoniae [13]): 2.1 µg/mL
